Measured values from patent US20100204157A1, “USE OF A PEPTIDE AS A THERAPEUTIC AGENT” (priority 2007, published 2010).
Where no end group is shown, it is not given here.

System: drug-resistant Mycobacterium tuberculosis
Settings: 5 micrograms per ml

Substance: FFVAP [Phe-Phe-Val-Ala-Pro]
- % inhibition: 0.0%
